From patent US8318807B2 (Laurus Labs Private Limited, priority 2010, dated 2012)

Legend:
[1] = Relative humidity stability over saturated salt solutions at ambient temperature, analysed by XRPD; type: physicochemical; details: for Dissociation by XRPD: 75, 94, or 98% RH after four weeks
Method: Relative humidity (RH) conditions were created at ambient temperatures using saturated salt solutions: NaCl ˜75%, KNO3 ˜94%, and K2SO4 ˜98%. Vials of each sample containing approximately 10 mg, were subjected to physical stability at ˜75% RH, ˜94% RH, and ˜98% RH for one day, three days, one week, and four weeks within a closed chamber. […] Upon completion of the duration allowed, the samples were immediately analyzed by XRPD.

[2] = Physical stability upon slurrying in water; type: physicochemical; details: for Behaviour upon slurrying in water: three days
Text: […]. […] […]. […]

[3] = tested on: cancer cell lines; details: cancer cell lines in vitro; cited from earlier work
[4] = Method: Solubility and concentration measurements were performed using ultraviolet (UV) spectroscopy on a Spectramax Microplate Reader.
Appropriate dilutions with water were made as necessary to maintain absorbance readings within the standard curve. All experiments were repeated three times to evaluate the standard deviation, while particle size was not controlled for any of the experiments.

[5] = Powder dissolution of cocrystal 4 (attempted for cocrystal 3): slurry in water at ambient, UV at 315 nm; type: physicochemical
[6] = Attempted intrinsic dissolution in 900 mL water at ambient conditions; type: physicochemical; details: after 30 minutes
Method: Intrinsic dissolution in 900 mL water at ambient conditions was also attempted. […] Therefore, a concentration vs. time and intrinsic dissolution rate value were unobtainable at these conditions.

[7] = Physical stability at elevated temperature and/or relative humidity, analysed by XRPD; type: physicochemical
Method: Physical stability was evaluated at approximately 40° C., 60° C., 25° C./75% RH, 25° C./98% RH, and 40° C./75% RH and XRPD was used to detect dissociation or form conversion. Vials of each cocrystal were subjected to each condition for durations of two weeks, one month, and two months. Upon completion of the duration allowed, the samples were immediately analyzed by XRPD.

| Compound | Results (XRPD) ([1]; 75% RH, 1 week) | Results (XRPD) ([1]; 75% RH, 4 weeks) | Results (XRPD) ([1]; 75% RH, 1 day) | Results (XRPD) ([1]; 75% RH, 3 days) | Results (XRPD) ([1]; 94% RH, 1 week (7 days)) | Results (XRPD) ([1]; 94% RH, 4 weeks) | Results (XRPD) ([1]; 94% RH, 1 day) | Results (XRPD) ([1]; 94% RH, 3 days) | Results (XRPD) ([1]; 98% RH, 1 week) | Results (XRPD) ([1]; 98% RH, 4 weeks) | Results (XRPD) ([1]; 98% RH, 1 day) | Results (XRPD) ([1]; 98% RH, 3 days) | Behaviour upon slurrying in water [2] | Dissociation by XRPD [1] | also measured |
| --- | --- | --- | --- | --- | --- | --- | --- | --- | --- | --- | --- | --- | --- | --- | --- |
| Cn1c(=O)c2c(ncn2C)n(C)c1=O [caffeine] | caffeine anhydrous | caffeine anhydrous | caffeine anhydrous | caffeine anhydrous | caffeine hydrate | caffeine hydrate | caffeine anhydrous | caffeine anhydrous/caffeine hydrate | caffeine hydrate | caffeine hydrate | caffeine hydrate | caffeine hydrate | – | – | Conversion to hydrate ([1]; 75% RH, up to four weeks): does not display signs of conversion; Time of partial conversion to hydrate/dihydrate ([1]; 94% RH): between one and three days; Time of (full) conversion to hydrate/dihydrate ([1]; 98% RH): less than one day |
| COc1cc(/C=C/c2ccc(O)cc2)cc(OC)c1.Cn1c(=O)c2c(ncn2C)n(C)c1=O [cocrystal 1 (Form I), pterostilbene:caffeine] | cocrystal 1 (Form I), no caffeine hydrate | cocrystal 1 (Form I), no caffeine hydrate | cocrystal 1 (Form I), no caffeine hydrate | cocrystal 1 (Form I), no caffeine hydrate | cocrystal 1 (Form I), no caffeine hydrate | cocrystal 1 (Form I), no caffeine hydrate | cocrystal 1 (Form I), no caffeine hydrate | cocrystal 1 (Form I), no caffeine hydrate | – | – | – | – | precipitation of pterostilbene | – | Results (XRPD) ([2]; Table 19, slurry, 2 days): cocrystal 1 (Form I), no caffeine hydrate; Results (XRPD) ([1]; 75% RH, 1 week, then additional stress at 98% RH, 1 week): cocrystal 1 (Form I), no caffeine hydrate; Results (XRPD) ([1]; 75% RH, 1 day, then additional stress at 98% RH, 1 day): cocrystal 1 (Form I), no caffeine hydrate; Results (XRPD) ([1]; 94% RH, 7 days, then additional stress at 98% RH, 4 weeks): cocrystal 1 (Form I), no caffeine hydrate |
| COc1cc(/C=C/c2ccc(O)cc2)cc(OC)c1.Cn1c(=O)c2c(ncn2C)n(C)c1=O [cocrystal 1, pterostilbene:caffeine] | – | – | – | – | – | – | – | – | – | – | – | – | – | no dissociation | – |
| COc1cc(/C=C/c2ccc(O)cc2)cc(OC)c1 [pterostilbene, trans-3,5-dimethoxy-4′-hydroxystilbene] | – | pterostilbene (Form I) | – | – | – | pterostilbene (Form I) | – | – | – | pterostilbene (Form I) | – | – | – | – | Cytotoxic activity [3]: cytotoxic activity |
| pterostilbene:carbamazepine [cocrystal 2] | cocrystal 2, no carbamazepine dihydrate | cocrystal 2, no carbamazepine dihydrate | cocrystal 2, no carbamazepine dihydrate | cocrystal 2, no carbamazepine dihydrate | cocrystal 2, no carbamazepine dihydrate | cocrystal 2, no carbamazepine dihydrate | cocrystal 2, no carbamazepine dihydrate | cocrystal 2, no carbamazepine dihydrate | cocrystal 2, no carbamazepine dihydrate | cocrystal 2, no carbamazepine dihydrate | cocrystal 2, no carbamazepine dihydrate | cocrystal 2, no carbamazepine dihydrate | stable | – | Solubility (±standard deviation) [4]: 8.5 ± 0.7 µg/mL |
| pterostilbene:glutaric acid [cocrystal 3] | – | – | – | – | – | – | – | – | – | – | – | – | – | no dissociation | Solubility relative to pterostilbene ([5]; concluded from crystalline pterostilbene being the only product after slurrying in water): greater than the solubility of pterostilbene; XRPD result after slurrying in water ([5]; water at ambient, after 5 minutes): crystalline pterostilbene; XRPD result in intrinsic dissolution [6]: crystalline pterostilbene; Results (by XRPD) ([7]; 25° C./75% RH, 2 weeks): cocrystal 3; Results (by XRPD) ([7]; 25° C./75% RH, 4 weeks): cocrystal 3; Results (by XRPD) ([7]; 25° C./75% RH, 8 weeks): cocrystal 3; Results (by XRPD) ([7]; 25° C./98% RH, 2 weeks): cocrystal 3; Results (by XRPD) ([7]; 25° C./98% RH, 4 weeks): cocrystal 3; Results (by XRPD) ([7]; 25° C./98% RH, 8 weeks): cocrystal 3; Results (by XRPD) ([7]; 40° C., 2 weeks): cocrystal 3; Results (by XRPD) ([7]; 40° C., 4 weeks): cocrystal 3; Results (by XRPD) ([7]; 40° C., 8 weeks): cocrystal 3; Results (by XRPD) ([7]; 40° C./75% RH, 2 weeks): cocrystal 3; Results (by XRPD) ([7]; 40° C./75% RH, 4 weeks): cocrystal 3; Results (by XRPD) ([7]; 40° C./75% RH, 8 weeks): cocrystal 3; Results (by XRPD) ([7]; 60° C., 2 weeks): cocrystal 3; Results (by XRPD) ([7]; 60° C., 4 weeks): cocrystal 3; Results (by XRPD) ([7]; 60° C., 8 weeks): cocrystal 3 |
